Reference: patent US7807383B2, “Diagnosing and treating hormone resistant cancers” (Board of Regents, The University of Texas System, priority 2007, dated 2010)

Molecular target: T1, DBC-1/ERα interaction (Homo sapiens, UniProt P03372)
T1 sequence (P03372 1-595): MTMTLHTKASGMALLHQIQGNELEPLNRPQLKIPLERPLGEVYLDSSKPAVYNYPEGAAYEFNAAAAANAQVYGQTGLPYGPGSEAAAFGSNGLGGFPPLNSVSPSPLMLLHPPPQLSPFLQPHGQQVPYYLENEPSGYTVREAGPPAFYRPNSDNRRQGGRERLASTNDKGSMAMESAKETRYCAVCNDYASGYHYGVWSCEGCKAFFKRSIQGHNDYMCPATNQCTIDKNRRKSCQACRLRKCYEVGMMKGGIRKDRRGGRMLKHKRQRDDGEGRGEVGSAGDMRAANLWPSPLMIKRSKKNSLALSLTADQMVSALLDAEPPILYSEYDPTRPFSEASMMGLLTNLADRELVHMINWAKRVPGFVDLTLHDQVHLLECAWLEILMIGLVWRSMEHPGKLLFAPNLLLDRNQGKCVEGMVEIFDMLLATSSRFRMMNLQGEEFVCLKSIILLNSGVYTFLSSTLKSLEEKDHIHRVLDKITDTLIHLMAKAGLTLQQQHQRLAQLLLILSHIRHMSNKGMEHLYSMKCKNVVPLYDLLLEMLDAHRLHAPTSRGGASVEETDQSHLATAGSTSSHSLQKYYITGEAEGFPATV
Conditions: MCF-7 and BG-1 cells, hormone-free medium; E2 10^−7 M, 4-OHT 10^−6 M, ICI 10^−7 M; one hour
From the text: Results are representative of at least three independent experiments.

`C[C@]12CC[C@@H]3c4ccc(O)cc4C[C@@H](CCCCCCCCC[S+]([O-])CCCC(F)(F)C(F)(F)F)[C@H]3[C@@H]1CC[C@@H]2O` (stereo partly shown) [ICI 182,780] was tested, and the “effect on DBC-1/ERα interaction (co-immunoprecipitation)” value was “disrupted the DBC-1/ERα interaction”.
